Reference: ChEMBL document CHEMBL1129169, “Preparation of N-methoxycarbonyl-N-[2-nitro-4(5)-propylthiophenyl]thiourea as prodrugs of albendazole” (1996)
Several values for one entry are separate records, joined by “and”; a condition that tells them apart may be missing. Equal values may be shown once.

Key:
Rattus norvegicus [1] = organism: Rattus norvegicus; experiment: Bioconversion to albendazole in rats at 10 hr; detectable; type: functional, organism-based
Rattus norvegicus [2] = organism: Rattus norvegicus; experiment: Bioconversion to albendazole in rats at 2 hr; detectable; type: functional, organism-based
Rattus norvegicus [3] = organism: Rattus norvegicus; experiment: Bioconversion to albendazole sulfonic in rats at 8 hr; type: functional
Rattus norvegicus [4] = organism: Rattus norvegicus; experiment: Bioconversion to albendazole in rats at 4 hr; detectable; type: functional, organism-based
Rattus norvegicus [5] = organism: Rattus norvegicus; experiment: Bioconversion to albendazole in rats at 8 hr; detectable; type: functional, organism-based
Rattus norvegicus [6] = organism: Rattus norvegicus; experiment: Bioconversion to albendazole sulfonic in rats at 6 hr; type: functional
Rattus norvegicus [7] = organism: Rattus norvegicus; experiment: Bioconversion to albendazole sulfonic in rats at 4 hr; type: functional
Rattus norvegicus [8] = organism: Rattus norvegicus; experiment: Bioconversion to albendazole in rats at 12 hr; detectable; type: functional, organism-based
Rattus norvegicus [9] = organism: Rattus norvegicus; experiment: Bioconversion to albendazole in rats at 6 hr; detectable; type: functional, organism-based
Rattus norvegicus [10] = organism: Rattus norvegicus; experiment: Bioconversion to albendazole sulfonic in rats at 10 hr; type: functional
Rattus norvegicus [11] = organism: Rattus norvegicus; experiment: Bioconversion to albendazole in rats at 12 hr; type: functional
Rattus norvegicus [12] = organism: Rattus norvegicus; experiment: Bioconversion to albendazole sulfonic in rats at 2 hr; type: functional
Rattus norvegicus [13] = organism: Rattus norvegicus; experiment: Bioconversion to albendazole in rats at 2 hr; type: functional
Rattus norvegicus [14] = organism: Rattus norvegicus; experiment: Bioconversion to albendazole sulfonic in rats at 6 hr; not detectable; type: functional, organism-based
Rattus norvegicus [15] = organism: Rattus norvegicus; experiment: Bioconversion to albendazole in rats at 2 hr; not detectable; type: functional, organism-based
Rattus norvegicus [16] = organism: Rattus norvegicus; experiment: Bioconversion to albendazole in rats at 8 hr; not detectable; type: functional, organism-based
Rattus norvegicus [17] = organism: Rattus norvegicus; experiment: Bioconversion to albendazole sulfonic in rats at 8 hr; not detectable; type: functional, organism-based
Rattus norvegicus [18] = organism: Rattus norvegicus; experiment: Bioconversion to albendazole in rats at 8 hr; type: functional
Rattus norvegicus [19] = organism: Rattus norvegicus; experiment: Bioconversion to albendazole sulfonic in rats at 12 hr; not detectable; type: functional, organism-based
Rattus norvegicus [20] = organism: Rattus norvegicus; experiment: Bioconversion to albendazole sulfonic in rats at 10 hr; not detectable; type: functional, organism-based
Rattus norvegicus [21] = organism: Rattus norvegicus; experiment: Bioconversion to albendazole in rats at 4 hr; not detectable; type: functional, organism-based
Rattus norvegicus [22] = organism: Rattus norvegicus; experiment: Bioconversion to albendazole in rats at 12 hr; not detectable; type: functional, organism-based
Rattus norvegicus [23] = organism: Rattus norvegicus; experiment: Bioconversion to albendazole sulfonic in rats at 12 hr; type: functional
Rattus norvegicus [24] = organism: Rattus norvegicus; experiment: Bioconversion to albendazole sulfonic in rats at 4 hr; not detectable; type: functional, organism-based
Rattus norvegicus [25] = organism: Rattus norvegicus; experiment: Bioconversion to albendazole sulfonic in rats at 2 hr; not detectable; type: functional, organism-based
Rattus norvegicus [26] = organism: Rattus norvegicus; experiment: Bioconversion to albendazole sulfonic in rats at 8 hr; detectable; type: functional, organism-based
Rattus norvegicus [27] = organism: Rattus norvegicus; experiment: Bioconversion to albendazole in rats at 6 hr; not detectable; type: functional, organism-based

Which results are given for `CCCSc1ccc2[nH]c(NC(=O)OC)nc2c1` [ALBENDAZOLE]?
Activity (Rattus norvegicus [1]): Detectable; Activity (Rattus norvegicus [2]): Detectable; Activity (Rattus norvegicus [3]): 0.28 µg/mL and 0.1113 µg/mL; Activity (Rattus norvegicus [4]): Detectable; Activity (Rattus norvegicus [5]): Detectable; Activity (Rattus norvegicus [6]): 0.2875 µg/mL and 0.4081 µg/mL; Activity (Rattus norvegicus [7]): 0.3084 µg/mL and 0.1935 µg/mL; Activity (Rattus norvegicus [8]): Detectable; Activity (Rattus norvegicus [9]): Detectable; Activity (Rattus norvegicus [10]): 0.2696 µg/mL and 0.1297 µg/mL; Activity (Rattus norvegicus [11]): 0.098 µg/mL; Activity (Rattus norvegicus [12]): 0.593 µg/mL and 0.245 µg/mL; Activity (Rattus norvegicus [13]): 0.055 µg/mL

Which Activity (Rattus norvegicus [1]) does the source give for `CCCSc1ccc([N+](=O)[O-])c(NC(=S)NC(=O)OC)c1` here?
Its Activity is “Detectable”.

And the Activity (Rattus norvegicus [14])?
The Activity was “Not detectable”.

And the Activity (Rattus norvegicus [15])?
Its Activity is “Not detectable”.

And the Activity (Rattus norvegicus [16])?
The Activity was “Not detectable”.

And the Activity (Rattus norvegicus [17])?
The Activity was “Not detectable”.

What about the Activity (Rattus norvegicus [18]) of the same molecule?
The Activity was 0.0792 µg/mL.

What about the Activity (Rattus norvegicus [7]) of the same molecule?
The Activity was 0.096 µg/mL.

And the Activity (Rattus norvegicus [19])?
The Activity was “Not detectable”.

And the Activity (Rattus norvegicus [20])?
Its Activity is “Not detectable”.

And the Activity (Rattus norvegicus [21])?
Its Activity is “Not detectable”.

What about the Activity (Rattus norvegicus [22]) of the same molecule?
The Activity was “Not detectable”.

And the Activity (Rattus norvegicus [10])?
Its Activity is 0.0889 µg/mL.

And the Activity (Rattus norvegicus [23])?
Its Activity is 0.1622 µg/mL.

What about the Activity (Rattus norvegicus [24]) of the same molecule?
The Activity was “Not detectable”.

What about the Activity (Rattus norvegicus [25]) of the same molecule?
Its Activity is “Not detectable”.

What about the Activity (Rattus norvegicus [26]) of the same molecule?
Its Activity is “Detectable”.

`CCCSc1ccc(NC(=S)NC(=O)OC)c([N+](=O)[O-])c1` was tested. Which Activity (Rattus norvegicus [1]) did it give?
The Activity was “Detectable”.

What about the Activity (Rattus norvegicus [14]) of the same molecule?
The Activity was “Not detectable”.

And the Activity (Rattus norvegicus [2])?
The Activity was “Detectable”.

What about the Activity (Rattus norvegicus [27]) of the same molecule?
The Activity was “Not detectable”.

What about the Activity (Rattus norvegicus [5]) of the same molecule?
The Activity was “Detectable”.

What about the Activity (Rattus norvegicus [6]) of the same molecule?
The Activity was 0.1633 µg/mL.

What about the Activity (Rattus norvegicus [17]) of the same molecule?
Its Activity is “Not detectable”.

What about the Activity (Rattus norvegicus [7]) of the same molecule?
Its Activity is 0.0927 µg/mL and 0.0958 µg/mL.

And the Activity (Rattus norvegicus [8])?
Its Activity is “Detectable”.

What about the Activity (Rattus norvegicus [9]) of the same molecule?
The Activity was “Detectable”.

And the Activity (Rattus norvegicus [20])?
Its Activity is “Not detectable”.

What about the Activity (Rattus norvegicus [21]) of the same molecule?
Its Activity is “Not detectable”.

And the Activity (Rattus norvegicus [23])?
Its Activity is 0.2704 µg/mL.

And the Activity (Rattus norvegicus [12])?
Its Activity is 0.1802 µg/mL and 0.1088 µg/mL.
